Results as given in patent publication US5994384A, “Pharmaceutical compositions of levo-enantiomers of medetomidine derivatives and their use” (Orion Corporation, priority 1995, dated 1999).

How the values were obtained:
adrenergic α-2 receptors [1] = target: T1, adrenergic α-2 receptors (Homo sapiens, UniProt P08913); assay: cell-based; design: This cell line has been used as a model system for studying adrenergic α-2 receptors; endogenous in cells; host or cells: HEL (human erythroleukemia) cells
T1 sequence (P08913 1-465): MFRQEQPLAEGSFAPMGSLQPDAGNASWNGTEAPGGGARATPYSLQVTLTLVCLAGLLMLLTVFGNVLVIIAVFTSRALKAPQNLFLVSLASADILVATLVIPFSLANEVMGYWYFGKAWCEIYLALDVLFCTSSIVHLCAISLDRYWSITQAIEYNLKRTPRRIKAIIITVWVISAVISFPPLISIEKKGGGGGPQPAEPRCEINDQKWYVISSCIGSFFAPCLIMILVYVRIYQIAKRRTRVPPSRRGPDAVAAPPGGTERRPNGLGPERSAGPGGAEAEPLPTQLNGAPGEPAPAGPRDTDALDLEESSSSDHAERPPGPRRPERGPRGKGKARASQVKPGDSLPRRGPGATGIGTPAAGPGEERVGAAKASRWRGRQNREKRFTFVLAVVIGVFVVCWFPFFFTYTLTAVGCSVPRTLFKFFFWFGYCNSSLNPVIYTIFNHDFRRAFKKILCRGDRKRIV
Method: The intracellular concentration of cAMP was measured by prelabelling the cells with [^3 H]adenine (Amersham, UK) as described by Jansson et al (1985, Eur. J. Pharmacol. […], 165). Separation of [^3 H]ATP and [^3 H]cAMP was achieved by the method of Salomon et al. (1974, Anal. Biochem. 58, 541). Conversion of cell-associated [^3 H]ATP to [^3 H]cAMP was expressed as a percentage of the total radioactivity and normalized to the percentage recovery of [^14 C]cAMP tracer.

adrenergic α-2 receptors [2] = target: T1, adrenergic α-2 receptors; details: HEL cells; for antagonism of receptor activation to UK 14,304 by prior administration: intracellular Ca2+, 10 μM UK 14,304, 10 μM I-medetomidine, 1 μM rauwolscine
Source text: This system was used to screen different adrenergic α-2 receptor agonists for functional purposes.
The cells were loaded with fura-2/AM (Molecular probes, Junction City, USA). […] The dye responses were calibrated by sequential addition of digitonin and EGTA at the end of the experiment to obtain maximal and minimal fluorescence values, respectively.

Row | SMILES | increase in the production of cAMP (adrenergic α-2 receptors [1]; hel cells) [fold] | decrease of the concentration of Ca2+ level (adrenergic α-2 receptors [2]; 10 μM compound) [nM] | antagonism of receptor activation to UK 14,304 by prior administration (adrenergic α-2 receptors [2]) | activation at 10 µM (adrenergic α-2 receptors [1]; HEL, read-out: further stimulation of forskolin stimulated cAMP production) [%]
1 | C=C[C@@]1(C)CC(=O)[C@]2(O)[C@@]3(C)[C@@H](O)CCC(C)(C)[C@@H]3[C@H](O)[C@H](OC(C)=O)[C@@]2(C)O1 [forskolin, reference compound] | 10 | – | – | –
2 | Cc1cccc([C@@H](C)c2cnc[nH]2)c1C [I-medetomidine, Levomedetomidine] | – | -17 ± 2 | did not antagonise receptor activation to UK | 42 ± 27
3 | COC(=O)[C@H]1[C@H]2C[C@H]3c4[nH]c5ccccc5c4CCN3C[C@H]2CC[C@@H]1O [rauwolscine, reference compound] | – | – | did | –
